The text below walks through data of patent US20060265769A1, “Gab2 (p97) gene and methods of use thereof” (Beth Israel Deaconess Medical Center, Inc., priority 2000, published 2006).

One experiment has as its system BaF3 cells. Kind of experiment: IL-3-induced c-fos promoter luciferase reporter assay. Format: cell-based. The settings on record: IL-3 stimulation. How it is done: Therefore, the role of Gab2 in IL-3-induced c-fos promoter activity was assessed. For c-fos reporter assays, 1.5 μg of c-fos promoter (nt −710 to +42)-luciferase reporter were used (Hu et al., Science 268, 100-102 (1995)). STAT-driven transctivation was measured using 1.5 μg of a GAS-luciferase reporter (Jaster et al., Mol. Cell. Biol. 3364-3372 (1997)). For Elk assays, Gal4-Elk-1 (2 μg) and Gal4-luciferase (1 μg) were used (Bennett et al., Mol. Cell. Biol. 16, 1189-1202 (1996)). Cells were electroporated at 300V/800 μF, transferred to fresh RPMI/10% WEHI supernatant/10% FCS and, after three hours, were starved in RPMI/10% FCS. Twelve hours post-transfection, transfected cells (approximately 10^6/condition) were incubated in RPMI/10% FCS alone or with murine IL-3 (1 ng/ml) for two hours. Luciferase assays were performed with a kit (Promega, Madison, Wis.). Promoter activities were normalized to Renilla luciferase levels.
For orientation: A reporter such as luciferase makes a cellular process visible.

For experiment [1], the system named is MCF10A cells. The settings on record: treated on days 1 and 2, acini at 9 days (FIG. 15G).
In experiment [2] the test system is MCF10A cells. In words: Proliferation of MCF10A cells in three-dimensional culture (Ki67 staining). Format: cell-based, human. As to conditions: Gab2-overexpressing MCF10A, days 6 and 15 of culture; UO 15 μM on days 13 and 14 (FIG. 15F).

Each structure is given as a SMILES string.

As to `COc1cccc(-c2cc(=O)c3ccccc3o2)c1N` [PD98059], the “IL-3-induced c-fos luciferase activity” value with BaF3 cells was “ablated”.

Take `N#CC(=C(/N)Sc1ccccc1N)/C(C#N)=C(/N)Sc1ccccc1N` [UO126]: the “cooperation of Gab2 with Neu” value in the experiment on MCF10A cells [1] is recorded as “blocked”. Besides, in the experiment with MCF10A cells [2], the “effects of Gab2 overexpression on the proliferation of MCF10A” value is given as “abolished”.
